In patent US4866038A, “Method of stimulating integumental melanocytes by topical application of analogs of alpha-msh” (University Patents, Inc., priority 1988, dated 1989):
Like-named read-outs stand apart in the source and are kept apart here. Non-standard residues stand in square brackets, D forms with d. Residues, ends and D or L forms follow the SMILES beside them. *: point of attachment. Phe(4-NO2) = N[C@@H](Cc1ccc([N+](=O)[O-])cc1)C(=O)O; dPhe(4-NO2) = N[C@H](Cc1ccc([N+](=O)[O-])cc1)C(=O)O; dPhg = N[C@@H](C(=O)O)c1ccccc1; Phg = N[C@H](C(=O)O)c1ccccc1; Nle = CCCC[C@H](N)C(=O)O; For = O=C*

What was measured:
[1] = system: frog (Rana pipiens); type: cell-based
Procedure: (§1) Biological effect on in vivo and in vitro melanosome dispersion was examined using the frog (Rana pipiens) and the lizard (Anolis caroliniensis). [See Hadley et al., Science 213:1025-1027(1981)]; similar examinations were conducted with respect to the duration of its ability to stimulate melanosome dispersion in vitro using the skin bioassay as described in Shimume, Endrochrinology, 54:553-560(1954). The in vitro results are depicted in Table I.

[2] = system: lizard (Anolis caroliniensis); type: cell-based
Procedure: as §1

Compound	Relative Potency Frog [1]	Relative Potency Lizard [2]	Relative Potency Frog ([1]; in vitro skin bioassay, alpha-MSH = 1.0)
CSCC[C@H](NC(C)=O)C(=O)N[C@@H](CCC(=O)O)C(=O)N[C@@H](Cc1c[nH]cn1)C(=O)N[C@H](C)C(=O)N[C@@H](CCCNC(=N)N)C(=O)N[C@@H](Cc1c[nH]c2ccccc12)C(=O)NCC(=O)N[C@@H](CCCCN)C(N)=O [Ac--[D-Ala^7]--alpha-MSH4-11 --NH2] (Ac-MEH[dA]RWGK-NH2)	0.001	–	–
CCCC[C@H](NC(C)=O)C(=O)N[C@@H](CCC(=O)O)C(=O)N[C@@H](Cc1c[nH]cn1)C(=O)N[C@H](Cc1ccccc1)C(=O)N[C@@H](CCCNC(=N)N)C(=O)N[C@@H](Cc1c[nH]c2ccccc12)C(N)=O [Ac--[Nle^4 --D-Phe^7 --alpha-MSH4-9 --NH2] (Ac-[Nle]EH[dF]RW-NH2)	–	7.14	–
CCCC[C@H](NC(C)=O)C(=O)N[C@@H](CCC(=O)O)C(=O)N[C@@H](Cc1c[nH]cn1)C(=O)NCC(=O)N[C@@H](CCCNC(=N)N)C(=O)N[C@@H](Cc1c[nH]c2ccccc12)C(=O)NCC(=O)N[C@@H](CCCCN)C(N)=O [Ac--[Nle^4 --Gly^7]--alpha-MSH4-11 --NH2] (Ac-[Nle]EHGRWGK-NH2)	0.005	0.0005	–
CCCC[C@H](NC(C)=O)C(=O)N[C@@H](CCC(=O)O)C(=O)N[C@@H](Cc1c[nH]cn1)C(=O)N[C@@H](Cc1ccc(O)cc1)C(=O)N[C@@H](CCCNC(=N)N)C(=O)N[C@@H](Cc1c[nH]c2ccccc12)C(=O)NCC(=O)N[C@@H](CCCCN)C(N)=O [Ac--[Nle^4 --Tyr^7]--alpha-MSH4-11 --NH2] (Ac-[Nle]EHYRWGK-NH2)	–	0.0090	–
CCCC[C@H](NC(C)=O)C(=O)N[C@@H](CCC(=O)O)C(=O)N[C@@H](Cc1c[nH]cn1)C(=O)N[C@H](Cc1ccccc1)C(=O)N[C@@H](CCCNC(=N)N)C(=O)N[C@@H](Cc1c[nH]c2ccccc12)C(=O)NCC(=O)N[C@@H](CCCCN)C(N)=O [Ac--[Nle^4 --D-Phe^7]--alpha-MSH4-11 --NH2] (Ac-[Nle]EH[dF]RWGK-NH2)	0.012	8.0	–
CCCC[C@H](NC(C)=O)C(=O)N[C@@H](CCC(=O)O)C(=O)N[C@@H](Cc1c[nH]cn1)C(=O)N[C@H](Cc1ccccc1)C(=O)N[C@@H](CCCNC(=N)N)C(=O)N[C@@H](Cc1ccccc1)C(=O)NCC(=O)N[C@@H](CCCCN)C(N)=O [Ac--[Nle^4 --D-Phe^7 --Phe^9]--alpha-MSH4-11 --NH2] (Ac-[Nle]EH[dF]RFGK-NH2)	0.017	–	–
CCCC[C@H](NC(C)=O)C(=O)N[C@@H](CCC(=O)O)C(=O)N[C@@H](Cc1c[nH]cn1)C(=O)N[C@@H](C(=O)N[C@@H](CCCNC(=N)N)C(=O)N[C@@H](Cc1c[nH]c2ccccc12)C(=O)NCC(=O)N[C@@H](CCCCN)C(N)=O)c1ccccc1 [Ac--[Nle^4 --D-Plg^7]--alpha-MSH4-11 --NH2] (Ac-[Nle]EH[dPhg]RWGK-NH2)	0.0003	0.0005	–
CCCC[C@H](NC(C)=O)C(=O)N[C@@H](CCC(=O)O)C(=O)N[C@@H](Cc1c[nH]cn1)C(=O)N[C@H](Cc1ccccc1)C(=O)N[C@@H](CCCNC(=N)N)C(=O)N[C@H](Cc1c[nH]c2ccccc12)C(=O)NCC(=O)N[C@@H](CCCCN)C(N)=O [Ac--[Nle^4 --D-Phe^7 --D-Trp^9]--alpha-MSH4-11 --NH2] (Ac-[Nle]EH[dF]R[dW]GK-NH2)	3.17	10.5	–
CCCC[C@H](NC(C)=O)C(=O)N[C@@H](CCC(=O)O)C(=O)N[C@@H](Cc1c[nH]cn1)C(=O)N[C@H](Cc1ccccc1)C(=O)N[C@@H](CCCNC(=N)N)C(=O)N[C@@H](Cc1cn(C=O)c2ccccc12)C(=O)NCC(=O)N[C@@H](CCCCN)C(N)=O [Ac--[Nle^4 --D-Phe^7 --TrpFor^9]--alpha-MSH4-11 --NH2] (Ac-[Nle]EH[dF]RW(For)GK-NH2)	0.033	–	–
CC(=O)N[C@@H](Cc1ccc(O)cc1)C(=O)N[C@@H](CCC(=O)O)C(=O)N[C@@H](Cc1c[nH]cn1)C(=O)N[C@H](Cc1ccccc1)C(=O)N[C@@H](CCCNC(=N)N)C(=O)N[C@@H](Cc1c[nH]c2ccccc12)C(=O)NCC(N)=O [Ac--[Tyr^4 --D-Phe^7 --alpha-MSH4-10 --NH2] (Ac-YEH[dF]RWG-NH2)	0.005	–	–
CCCC[C@H](NC(C)=O)C(=O)N[C@@H](CCC(=O)O)C(=O)N[C@H](Cc1c[nH]cn1)C(=O)N[C@H](Cc1ccccc1)C(=O)N[C@@H](CCCNC(=N)N)C(=O)N[C@@H](Cc1c[nH]c2ccccc12)C(=O)NCC(=O)N[C@@H](CCCCN)C(N)=O [Ac--[Nle^4 --D-His^6 --D-Phe^7]--alpha-MSH4-11 --NH2] (Ac-[Nle]E[dH][dF]RWGK-NH2)	0.0006	0.053	–
CC(=O)N[C@@H](CCC(=O)O)C(=O)N[C@@H](Cc1c[nH]cn1)C(=O)N[C@H](Cc1ccccc1)C(=O)N[C@@H](CCCNC(=N)N)C(=O)N[C@@H](Cc1c[nH]c2ccccc12)C(=O)NCC(=O)N[C@@H](CCCCN)C(N)=O [Ac--[D-Phe^7]--alpha-MSH5-11 --NH2] (Ac-EH[dF]RWGK-NH2)	0.01	–	–
CCCC[C@H](NC(C)=O)C(=O)N[C@@H](CCC(=O)O)C(=O)N[C@@H](Cc1c[nH]cn1)C(=O)N[C@@H](Cc1ccccc1)C(=O)N[C@H](CCCNC(=N)N)C(=O)N[C@@H](Cc1c[nH]c2ccccc12)C(=O)NCC(=O)N[C@@H](CCCCN)C(N)=O [Ac--[Nle^4 --D-Arg^8]--alpha-MSH4-11 --NH2] (Ac-[Nle]EHF[dR]WGK-NH2)	0.000016	0.0022	–
CCCC[C@H](NC(C)=O)C(=O)N[C@@H](CCC(=O)O)C(=O)N[C@@H](Cc1c[nH]cn1)C(=O)N[C@H](C)C(=O)N[C@@H](CCCNC(=N)N)C(=O)N[C@@H](Cc1c[nH]c2ccccc12)C(=O)NCC(=O)N[C@@H](CCCCN)C(N)=O [Ac--[Nle^4 --D-Ala^7]--alpha-MSH4-11 --NH2] (Ac-[Nle]EH[dA]RWGK-NH2)	0.000080	0.020	–
CCCC[C@H](NC(C)=O)C(=O)N[C@@H](CCC(=O)O)C(=O)N[C@@H](Cc1c[nH]cn1)C(=O)N[C@@H](Cc1ccccc1)C(=O)N[C@@H](CCCNC(=N)N)C(=O)N[C@@H](Cc1c[nH]c2ccccc12)C(N)=O [Ac--[Nle^4 --alpha-MSH4-9 --NH2] (Ac-[Nle]EHFRW-NH2)	0.0007	0.18	–
CCCC[C@H](NC(C)=O)C(=O)N[C@@H](CCC(=O)O)C(=O)N[C@@H](Cc1c[nH]cn1)C(=O)N[C@@H](Cc1ccccc1)C(=O)N[C@@H](CCCNC(=N)N)C(=O)N[C@@H](Cc1c[nH]c2ccccc12)C(=O)NCC(=O)N[C@@H](CCCCN)C(N)=O [Ac--[Nle^4]-alpha-MSH4-11 --NH2] (Ac-[Nle]EHFRWGK-NH2)	0.0019	1.54	–
CCCC[C@H](NC(C)=O)C(=O)N[C@@H](CCC(=O)O)C(=O)N[C@@H](Cc1c[nH]cn1)C(=O)N[C@H](Cc1ccc(O)cc1)C(=O)N[C@@H](CCCNC(=N)N)C(=O)N[C@@H](Cc1c[nH]c2ccccc12)C(=O)NCC(=O)N[C@@H](CCCCN)C(N)=O [Ac--[Nle^4 --D-Tyr^7]--alpha-MSH4-11 --NH2] (Ac-[Nle]EH[dY]RWGK-NH2)	–	1.0	–
CCCC[C@H](NC(C)=O)C(=O)N[C@@H](CCC(=O)O)C(=O)N[C@H](Cc1c[nH]cn1)C(=O)N[C@@H](Cc1ccccc1)C(=O)N[C@@H](CCCNC(=N)N)C(=O)N[C@@H](Cc1c[nH]c2ccccc12)C(=O)NCC(=O)N[C@@H](CCCCN)C(N)=O [Ac--[Nle^4 --D-His^6]--alpha-MSH4-11 --NH2] (Ac-[Nle]E[dH]FRWGK-NH2)	0.0014	0.002	–
CCCC[C@H](NC(C)=O)C(=O)N[C@@H](CCC(=O)O)C(=O)N[C@@H](Cc1c[nH]cn1)C(=O)N[C@H](Cc1ccc([N+](=O)[O-])cc1)C(=O)N[C@@H](CCCNC(=N)N)C(=O)N[C@@H](Cc1c[nH]c2ccccc12)C(=O)NCC(=O)N[C@@H](CCCCN)C(N)=O [Ac--[Nle^4 --D-pNO2 Phe^7]-- alpha-MSH4-11 --NH2] (Ac-[Nle]EH[dPhe(4-NO2)]RWGK-NH2)	0.10	4.0	–
CCCC[C@H](NC(C)=O)C(=O)N[C@@H](CCC(=O)O)C(=O)N[C@@H](Cc1c[nH]cn1)C(=O)N[C@@H](C)C(=O)N[C@@H](CCCNC(=N)N)C(=O)N[C@@H](Cc1c[nH]c2ccccc12)C(=O)NCC(=O)N[C@@H](CCCCN)C(N)=O [Ac--[Nle^4 --Ala^7]--alpha-MSH4-11 --NH2] (Ac-[Nle]EHARWGK-NH2)	0.02	0.009	–
Ac--[Phe--Gly^7 ]--alpha-MSH4-11 --NH2	–	–	0.10
CC(=O)N[C@@H](Cc1ccc(O)cc1)C(=O)N[C@@H](CCC(=O)O)C(=O)N[C@@H](Cc1c[nH]cn1)C(=O)N[C@H](Cc1ccccc1)C(=O)N[C@@H](CCCNC(=N)N)C(=O)N[C@@H](Cc1c[nH]c2ccccc12)C(=O)NCC(=O)N[C@@H](CCCCN)C(N)=O [Ac--[Tyr^4 --D-Phe^7]--alpha-MSH4-11 --NH2] (Ac-YEH[dF]RWGK-NH2)	0.01	–	–
CCCC[C@H](NC(C)=O)C(=O)N[C@@H](CCC(=O)O)C(=O)N[C@@H](Cc1c[nH]cn1)C(=O)N[C@H](C(=O)N[C@@H](CCCNC(=N)N)C(=O)N[C@@H](Cc1c[nH]c2ccccc12)C(=O)NCC(=O)N[C@@H](CCCCN)C(N)=O)c1ccccc1 [Ac--[Nle^4 --Plg^7]--alpha-MSH4-11 --NH2] (Ac-[Nle]EH[Phg]RWGK-NH2)	0.14	0.14	–
CSCC[C@H](NC(C)=O)C(=O)N[C@@H](CCC(=O)O)C(=O)N[C@@H](Cc1c[nH]cn1)C(=O)N[C@@H](Cc1ccc([N+](=O)[O-])cc1)C(=O)N[C@@H](CCCNC(=N)N)C(=O)N[C@@H](Cc1c[nH]c2ccccc12)C(=O)NCC(=O)N[C@@H](CCCCN)C(N)=O [Ac--[Phe(pNO2)^7]--alpha-MSH4-11 --NH2] (Ac-MEH[Phe(4-NO2)]RWGK-NH2)	0.0003	–	–
